{"source": "patent US11026945B2", "about": "“Protein kinase RNA-like endoplasmic reticulum kinase (PERK) inhibitors for prevention and/or treatment of lung injury and/or inflammation” (THE TRUSTEES OF THE UNIVERSITY OF PENNSYLVANIA, priority 2016, dated 2021)", "key": {"AEC-I monolayers": {"system": "AEC-I monolayers", "experiment": "Monolayer permeability, FITC-labeled streptavidin binding to biotin", "format": "cell-based, rat", "text": "To obtain monolayer rat type-II alveolar epithelial cells (AEC-II), cells were isolated from Sprague-Dawley rats (250-300 g, N=30 purchased from Charles River Laboratories, Wilmington, Mass.) described by Tschumperlin D J, Margulies SS. Equibiaxial deformation-induced injury of alveolar epithelial cells in vitro. Am J Physiol. 1998; 275(6 Pt 1):L1173-83. Epub 1998/12/09 (PubMed PMID: 9843855), with modifications. Briefly, animals were killed and the lungs were harvested. The lung tissue was digested with elastase at 37° C. and distal airways were isolated. Following, cells were placed on rat IgG coated containing no serum for 90 minutes to eliminate contaminating leukocytes and parenchymal cells. This isolation method yielded approximately 95% pure alveolar epithelial cell population. 1.3 million cells were plated on 1 cm diameter fibronectin-coated custom made silastic membranes. In permeability studies, biotin were mixed with fibronectin and membranes were pretreated with oxygen plasma coating to ensure homogenous distribution of the fibronectin. Cells were cultured with 10% fetal bovine serum (FBS)-containing Minimal Essential Medium (MEM) containing low dose antibiotics for 3 days. 32 to 40 monolayers were per rat. On the 3rd day, matured monolayers were randomized to be exposed to one of the treatments for 24 hours (N=3 monolayers/treatment): • A. RNAiMax transfection reagent treatment using serum free media (Opti-MEM, Thermo Fisher Scientific, Waltham, Mass.). This is a negative control for siRNA experiments where serum free media is used for improved transfection efficiency; • B. non-targeting siRNA treatment ([…], Dharmacon) serves a negative control for transfection; • C. […]\nThe dose of siRNA and PI treatment was selected based on dose-response curves above (FIG. 2A-FIG. 2E). […] All membranes were treated with FITC-labeled streptavidin (Thermo Fisher Scientific) at the end of the experiment and light emission was detected at 488 nm with fluorescent microscopy (Nikon TE300, Melville, N.Y.). […]"}, "[1]": {"system": "cleaved caspase 3 (Casp3) in AEC-I monolayers", "format": "cell-based, rat"}}, "data": [{"compound": "tunicamycin", "values": [{"measurement": "monolayer permeability", "setting": "AEC-I monolayers; 1 ug/ml tunicamycin 24 hrs treatment, vs DMSO vehicle control", "value": "increased permeability"}, {"measurement": "cell death measured with cleaved caspase 3 (Casp3)", "setting": "[1]; tunicamycin 1 μg/ml 24 hrs", "value": "not related to increased cell death"}]}, {"compound": "O=C(/C=C/c1ccccc1)NC(NC(=S)Nc1cccc2cccnc12)C(Cl)(Cl)Cl", "note": "(stereo not shown) [salubrinal]", "values": [{"measurement": "monolayer permeability", "setting": "AEC-I monolayers; 10 uM salubrinal 2 hrs pretreatment", "value": "increased permeability"}, {"measurement": "Casp3 levels", "setting": "[1]; salubrinal, unstretched and stretched monolayers", "value": "significant increase"}]}]}
